ChEMBL document CHEMBL1201862, “PubChem BioAssay data set” (2004)
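Assay format: 96-well plates, 48-hour exposure. The concentration for 50% growth inhibition is given as GI50.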 Activity calls are given as the source filed them. Rule as the data show it: active = GI50 up to about 1.1 µM and inactive = higher.

Columns and labels:
Assay in all cases: DTP human tumour cell line panel, 48 h
786-0 = test system: 786-0
SK-OV-3 = test system: SK-OV-3
SF-295 = test system: SF-295
ACHN = test system: ACHN
SK-MEL-5 = test system: SK-MEL-5
SF-539 = test system: SF-539
COLO 205 = test system: COLO 205
Malme-3M = test system: Malme-3M
RPMI-8226 = test system: RPMI-8226
DMS-273 = test system: DMS-273
OVCAR-4 = test system: OVCAR-4
NCI-H522 = test system: NCI-H522
XF498 = test system: XF498
UO-31 = test system: UO-31
SN12C = test system: SN12C
HL-60 = test system: HL-60
OVCAR-8 = test system: OVCAR-8
M14 = test system: M14
HOP-92 = test system: HOP-92
NCI-H460 = test system: NCI-H460
M19-MEL = test system: M19-MEL
HOP-62 = test system: HOP-62
HCT-15 = test system: HCT-15
RXF 631 = test system: RXF 631
U-251 = test system: U-251
KM-20L2 = test system: KM-20L2
HOP-18 = test system: HOP-18
NCI-H226 = test system: NCI-H226
DMS-114 = test system: DMS-114
SR = test system: SR
RXF 393 = test system: RXF 393
OVCAR-3 = test system: OVCAR-3
A549 = test system: A549
HT-29 = test system: HT-29
CAKI-1 = test system: CAKI-1
EKVX = test system: EKVX
SK-MEL-2 = test system: SK-MEL-2
HCC 2998 = test system: HCC 2998
LXFL 529 = test system: LXFL 529
SK-MEL-28 = test system: SK-MEL-28
UACC-257 = test system: UACC-257
SNB-75 = test system: SNB-75
K562 = test system: K562
KM12 = test system: KM12
SNB-78 = test system: SNB-78
SF-268 = test system: SF-268
CCRF-CEM = test system: CCRF-CEM
UACC-62 = test system: UACC-62
IGROV-1 = test system: IGROV-1
DLD-1 = test system: DLD-1
HCT-116 = test system: HCT-116
A498 = test system: A498
NCI-H23 = test system: NCI-H23
SNB-19 = test system: SNB-19
MOLT-4 = test system: MOLT-4
LOX IMVI = test system: LOX IMVI
OVCAR-5 = test system: OVCAR-5
TK-10 = test system: TK-10

Question: `CCO/C=C/C(C)C1(C(=O)OCC)CCCCC1=O` (stereo not drawn) was tested. Which GI50 (786-0) did it give?
Answer: 56.8 µM (inactive)

Question: And the GI50 (SK-OV-3)?
Answer: > 100 µM (inactive)

Question: And the GI50 (SF-295)?
Answer: > 100 µM (inactive)

Question: And the GI50 (ACHN)?
Answer: > 100 µM (inactive)

Question: What about the GI50 (SK-MEL-5) of the same molecule?
Answer: > 100 µM (inactive)

Question: What about the GI50 (SF-539) of the same molecule?
Answer: > 100 µM (inactive)

Question: What about the GI50 (COLO 205) of the same molecule?
Answer: > 100 µM (inactive)

Question: What about the GI50 (Malme-3M) of the same molecule?
Answer: > 100 µM (inactive)

Question: And the GI50 (RPMI-8226)?
Answer: 84.1 µM (inactive)

Question: And the GI50 (DMS-273)?
Answer: 21.4 µM (inactive)

Question: What about the GI50 (OVCAR-4) of the same molecule?
Answer: > 100 µM (inactive)

Question: And the GI50 (NCI-H522)?
Answer: > 100 µM (inactive)

Question: What about the GI50 (XF498) of the same molecule?
Answer: > 100 µM (inactive)

Question: What about the GI50 (UO-31) of the same molecule?
Answer: > 100 µM (inactive)

Question: What about the GI50 (SN12C) of the same molecule?
Answer: > 100 µM (inactive)

Question: What about the GI50 (HL-60) of the same molecule?
Answer: 71.1 µM (inactive)

Question: What about the GI50 (OVCAR-8) of the same molecule?
Answer: > 100 µM (inactive)

Question: What about the GI50 (M14) of the same molecule?
Answer: > 100 µM (inactive)

Question: And the GI50 (HOP-92)?
Answer: > 100 µM (inactive)

Question: What about the GI50 (NCI-H460) of the same molecule?
Answer: > 100 µM (inactive)

Question: What about the GI50 (M19-MEL) of the same molecule?
Answer: > 100 µM (inactive)

Question: And the GI50 (HOP-62)?
Answer: > 100 µM (inactive)

Question: And the GI50 (HCT-15)?
Answer: 63.1 µM

Question: What about the GI50 (RXF 631) of the same molecule?
Answer: > 100 µM (inactive)

Question: What about the GI50 (U-251) of the same molecule?
Answer: > 100 µM (inactive)

Question: What about the GI50 (KM-20L2) of the same molecule?
Answer: > 100 µM (inactive)

Question: What about the GI50 (HOP-18) of the same molecule?
Answer: > 100 µM (inactive)

Question: What about the GI50 (NCI-H226) of the same molecule?
Answer: > 100 µM (inactive)

Question: What about the GI50 (DMS-114) of the same molecule?
Answer: 86.9 µM (inactive)

Question: And the GI50 (SR)?
Answer: > 100 µM (inactive)

Question: What about the GI50 (RXF 393) of the same molecule?
Answer: > 100 µM (inactive)

Question: And the GI50 (OVCAR-3)?
Answer: > 100 µM (inactive)

Question: And the GI50 (A549)?
Answer: > 100 µM (inactive)

Question: What about the GI50 (HT-29) of the same molecule?
Answer: > 100 µM (inactive)

Question: What about the GI50 (CAKI-1) of the same molecule?
Answer: > 100 µM (inactive)

Question: What about the GI50 (EKVX) of the same molecule?
Answer: > 100 µM (inactive)

Question: What about the GI50 (SK-MEL-2) of the same molecule?
Answer: > 100 µM (inactive)

Question: What about the GI50 (HCC 2998) of the same molecule?
Answer: > 100 µM (inactive)

Question: And the GI50 (LXFL 529)?
Answer: > 100 µM (inactive)

Question: What about the GI50 (SK-MEL-28) of the same molecule?
Answer: > 100 µM (inactive)

Question: And the GI50 (UACC-257)?
Answer: > 100 µM (inactive)

Question: And the GI50 (SNB-75)?
Answer: > 100 µM (inactive)

Question: And the GI50 (K562)?
Answer: > 100 µM (inactive)

Question: What about the GI50 (KM12) of the same molecule?
Answer: > 100 µM (inactive)

Question: What about the GI50 (SNB-78) of the same molecule?
Answer: > 100 µM (inactive)

Question: And the GI50 (SF-268)?
Answer: > 100 µM (inactive)

Question: And the GI50 (CCRF-CEM)?
Answer: > 100 µM (inactive)

Question: What about the GI50 (UACC-62) of the same molecule?
Answer: > 100 µM (inactive)

Question: What about the GI50 (IGROV-1) of the same molecule?
Answer: > 100 µM (inactive)

Question: What about the GI50 (DLD-1) of the same molecule?
Answer: > 100 µM (inactive)

Question: And the GI50 (HCT-116)?
Answer: > 100 µM (inactive)

Question: What about the GI50 (A498) of the same molecule?
Answer: > 100 µM (inactive)

Question: What about the GI50 (NCI-H23) of the same molecule?
Answer: > 100 µM (inactive)

Question: And the GI50 (SNB-19)?
Answer: > 100 µM (inactive)

Question: What about the GI50 (MOLT-4) of the same molecule?
Answer: > 100 µM (inactive)

Question: And the GI50 (LOX IMVI)?
Answer: 45.9 µM (inactive)

Question: And the GI50 (OVCAR-5)?
Answer: > 100 µM (inactive)

Question: And the GI50 (TK-10)?
Answer: > 100 µM (inactive)
